In patent US7875604B2, “Compounds that inhibit HIV particle formation” (University of Virginia Patent Foundation, priority 2004, dated 2011):

Tests used:
[1] = system: HIV-1 NL4-3; test: Anti-HIV efficacy in fresh human PBMCs, reverse transcriptase readout, HIV-1 NL4-3; assay type: cell-based; conditions: for TI (TC50/IC50): HIV-1 NL4-3, PBMCs; for IC50: HIV-1 NL4-3, fresh human PBMCs, seven days, RT activity
Protocol: (§1) Compounds were evaluated for their ability to inhibit HIV replication in fresh human PBMCs. The assay was performed as follows.
(§2) Fresh human PBMCs, seronegative for HIV and HBV, were isolated from screened donors (Interstate Blood Bank, Inc. Memphis, Tenn.). Cells were pelleted/washed 2-3 times by low speed centrifugation and re-suspension in PBS to remove contaminating platelets. The Leukophoresed blood was then diluted 1:1 with Dulbecco's Phosphate Buffered Saline (DPBS) and layered over 14 mL of Lymphocyte Separation Medium (LSM; Cellgro® by Mediatech, Inc.; density 1.078+/−0.002 g/ml; Cat.#85-072-CL) in a 50 mL centrifuge tube and then centrifuged for 30 minutes at 600×g. Banded PBMCs were gently aspirated from the resulting interface and subsequently washed 2× with PBS by low speed centrifugation. After the final wash, cells were enumerated by trypan blue exclusion and re-suspended at 1×10^7 cells/mL in RPMI 1640 supplemented with 15% Fetal Bovine Serum (FBS), and 2 mM L-glutamine, 4 μg/mL Phytohemagglutinin (PHA-P, Sigma). The cells were allowed to incubate for 48-72 hours at 37° C. After incubation, PBMCs were centrifuged and resuspended in RPMI 1640 with 15% FBS, 2 mM L-glutamine, 100 U/mL penicillin, 100 μg/mL streptomycin, 10 μg/mL gentamycin, and 20 U/mL recombinant human IL-2 (R&D Systems, Inc). IL-2 is included in the culture medium to maintain the cell division initiated by the PHA mitogenic stimulation. PBMCs were maintained in this medium at a concentration of 1-2×10^6 cells/mL with biweekly medium changes until used in the assay protocol. Cells were kept in culture for a maximum of two weeks before being deemed too old for use in assays and discarded. Monocytes were depleted from the culture as the result of adherence to the tissue culture flask.
(§3) For the standard PBMC assay, PHA-P stimulated cells from at least two normal donors were pooled (mixed together), diluted in fresh medium to a final concentration of 1×10^6 cells/mL, and plated in the interior wells of a 96 well round bottom microplate at 50 μL/well (5×10^4 cells/well) in a standard format developed by the Infectious Disease Research department of Southern Research Institute. Pooling (mixing) of mononuclear cells from more than one donor is used to minimize the variability observed between individual donors, which results from quantitative and qualitative differences in HIV infection and overall response to the PHA and IL-2 of primary lymphocyte populations. Each plate contains virus/cell control wells (cells plus virus), experimental wells (drug plus cells plus virus) and compound control wells (drug plus media without cells, necessary for MTS monitoring of cytotoxicity). Since HIV-1 is not cytopathic to PBMCs, this allows the use of the same assay plate for both antiviral activity and cytotoxicity measurements. Test drug dilutions were prepared at a 2× concentration in microtiter tubes and 100 μL of each concentration was placed in appropriate wells using the standard format. 50 μL of a predetermined dilution of virus stock was placed in each test well (final MOI≅0.1). The PBMC cultures were maintained for seven days following infection at 37° C., 5% CO2. After this period, cell-free supernatant samples were collected for analysis of reverse transcriptase activity as a measure of virus release. Following removal of supernatant samples, compound cytotoxicity was measured by addition of MTS to the plates for determination of cell viability. Wells were also examined microscopically and any abnormalities were noted.
(§4) A microtiter plate-based reverse transcriptase (RT) reaction was utilized (Buckheit et al., AIDS Research and Human Retroviruses 7:295-302, 1991). Tritiated thymidine triphosphate (3H-TTP, 80 Ci/mmol, NEN) was received in 1:1 dH2O:Ethanol at 1 mCi/mL. […]

[2] = system: HIV-1 BR/93/021; test: Anti-HIV efficacy in fresh human PBMCs, reverse transcriptase readout, HIV-1 BR/93/021; assay type: cell-based; conditions: for TI (TC50/IC50): HIV-1 BR/93/021, PBMCs; for IC50: HIV-1 BR/93/021, fresh human PBMCs, seven days, RT activity
Protocol: as §1, §2, §3, §4

[3] = Human immunodeficiency virus 1, NL43, PBMC, 168 h
[4] = Human immunodeficiency virus 1, PBMC, 168 h

With COc1ccc2nc(C(F)(F)F)c(C#N)c(N)c2c1 [Compound 104366, 4-amino-6-methoxy-2-(trifluoromethyl)-3-quinolinecarbonitrile] the “TI (TC50/IC50)” value [1] was 23.91, the IC50 [1, 3] was 920 nM and the “TI (TC50/IC50)” value [2] was 38.91. It also gave an IC50 [2, 4] of 640 nM.

For “2-chloro-N-(4-methylphenyl)-4-(trifluoromethyl)-1,3-thazole-5-carboxamide [Compound 91161]”, the “TI (TC50/IC50)” value [1] was 5.92, the IC50 [1] was 2280 nM and the “TI (TC50/IC50)” value [2] was 12.01. It also gave an IC50 [2] of 1940 nM.

In the case of Fc1ccc(Nc2ncnc3ccccc23)cc1Cl [Compound 109020, N-(3-chloro-4-fluorophenyl)-N-(4-quinazolinyl)amine], the “TI (TC50/IC50)” value [1] is reported as over 1.55, the IC50 [1, 3] is reported as 26400 nM and the “TI (TC50/IC50)” value [2] is reported as over 3.09. For the same compound, the IC50 [2, 4] was 13200 nM.

In the case of COc1cccc(NC(=O)c2cc(Cl)nnc2Cl)c1 [Compound 107740, 3,6-dichloro-N-(3-methoxyphenyl)-4-pyridazinecarboxamide], the “TI (TC50/IC50)” value [1] is reported as 8.94, the IC50 [1, 3] is reported as 1610 nM and the “TI (TC50/IC50)” value [2] is reported as 94.00. The IC50 [2, 4] was 200 nM.

With CS(=O)(=O)c1ncc(-c2ccc(Br)cc2)cn1 [Compound 107129, -(4-bromophenyl)-2-(methylsulfonyl)pyrimidine] the “TI (TC50/IC50)” value [1] was 1.95, the IC50 [1, 3] was 2120 nM and the “TI (TC50/IC50)” value [2] was 3.48. For the same compound, the IC50 [2, 4] was 1800 nM.

In the case of CCc1c(C(=O)Nc2ccccc2)c(C)nc2sc(C(N)=O)c(N)c12 [Compound 75168, 3-amino-4-ethyl-6-methyl-N˜5˜-phenylthieno[2,3-b]pyridine-2,5-dicarboxamide], the “TI (TC50/IC50)” value [1] is reported as over 1.59, the IC50 [1, 3] is reported as 16900 nM and the “TI (TC50/IC50)” value [2] is reported as over 12.52. For the same compound, the IC50 [2, 4] was 2140 nM.

CCc1c(C)nc2sc(C(N)=O)c(N)c2c1C [Compound 103833, 3-amino-5-ethyl-4,6-dimethylthieno[2,3-b]pyridine-2-carboxamide] was tested, and the “TI (TC50/IC50)” value [1] was over 16.94, the IC50 [1, 3] was 2220 nM and the “TI (TC50/IC50)” value [2] was over 129.66. It also gave an IC50 [2, 4] of 290 nM.

In the case of COc1ccc2cc3c(N)n[nH]c3nc2c1 [Compound 89246, 7-methoxy-1H-pyrazolo[3,4-b]quinolin-3-ylamine], the “TI (TC50/IC50)” value [1] is reported as 14.90, the IC50 [1, 3] is reported as 1470 nM and the “TI (TC50/IC50)” value [2] is reported as 69.57. It also gave an IC50 [2, 4] of 470 nM.
